Article PMC12289066, “Identification of glutathione transferase (GST P1) inhibitors via a high-throughput screening assay and implications as alternative treatment options for breast cancers” (PLOS One, 2025)
Structures can show the parent of a compound that is named as a salt. Where two headings read alike, the source gives them in different places.

Experiments:
GST P1-1 [1] = biological target: T1, GST P1-1 (Homo sapiens, UniProt P09211); experiment: High-throughput GST P1-1 inhibition assay (384-well screen, CDNB/GSH); assay type: biochemical; conditions: compound 10 μM; score 0 = negative control (DMSO), 1 = positive control (EA 50 μM); average of duplicate
T1 construct: purchased Sigma-Aldrich
T1 sequence (P09211 2-210 limits assumed): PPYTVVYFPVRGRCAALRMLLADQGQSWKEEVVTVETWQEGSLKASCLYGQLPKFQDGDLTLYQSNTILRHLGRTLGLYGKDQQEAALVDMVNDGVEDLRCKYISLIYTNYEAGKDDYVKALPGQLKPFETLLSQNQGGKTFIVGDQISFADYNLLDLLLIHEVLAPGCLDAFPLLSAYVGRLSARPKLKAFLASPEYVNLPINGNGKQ
Method: (§1) Each drug compound was added to the respective well at a volume of 80 nL of 10 mM stock solution in DMSO, yielding a final compound concentration of 10 μM and a final DMSO concentration of 0.1%. Each plate’s first and last two columns were used as negative (no compound added – 80 nL per well of DMSO) and positive (80 nL of EA added with a final concentration of 50 μM) controls, respectively. The Gyger Certus Flex dispenser was set up using a freshly prepared 1 mM of GSH and 20 nM of GST P1-1, pH 7.4, in one syringe and 8 mM CDNB solution in pure ethanol in the other syringe. Into each well 80 μL of GST-GSH solution was dispensed and incubated at 25°C for 20 minutes before the reaction was initiated by the addition of 4 μL of CDNB solution. The plates were incubated for 2 h in the dark at 25°C and then the absorbance was of each well recorded on a BioTek Synergy NEO HTS multimode plate reader (Agilent®) at a wavelength of 340 nm.
The z’factor was calculated for each plate according to Zhang et al.. The Z-factor is a dimensionless, simple statistical characteristic for each HTS assay. This provides a valuable tool for the comparison and assessment of the quality of assays, and can be utilized in assay optimization and validation. For each plate, the concentration of product was normalized by assigning a score of 0 (0%) to the negative control (average of maximal concentration of product measured in the presence of enzyme without any inhibitor) and a score of 1 (100%) was assigned to the positive control (average minimal concentration of product measured in the presence of enzyme with the reference inhibitor, i.e., EA). The experiment was performed in duplicate and the score for each drug compound was calculated as an average ± standard deviation. […] An internal laboratory information management system (LIMS) was used for basic data processing, management, visualization, and statistical hit validation.

GST P1-1 [2] = biological target: T1, GST P1-1; experiment: Determination of IC50 for GST P1-1 enzyme (dose-response / reconfirmation assay); assay type: biochemical
Method: as §1
The IC50 of the GST P1-1 enzyme was determined for the 80 drug compounds with the highest score in the GST P1-1 screening assay. The assay conditions were used for the screening assay and each drug compound was tested at 8 different concentrations (μM) starting at 30 µM final assay concentration with a half-log dilution and 2 replicates per concentration.

MCF-7 cells = experiment: MTT cytotoxicity assay, MCF-7; assay type: cell-based, human; conditions: Homo sapiens, MCF7
Method: (§2) L929, MCF-7, and MDA-MB-231 cell lines were cultured in DMEM GlutaMAX media containing 10% heat-inactivated FBS and 1% (v/v) penicillin-streptomycin at 37°C and CO2 (5%). Cytotoxicity was determined using a 3-(4,5-dimethyl 2-thiazolyl)-2,5-diphenyl-2H-tetrazolium bromide (MTT) assay. 100 μL aliquots and approximately 50’000 cells/well were added to each well of flat-bottomed 96-well plates and incubated for 24 h in a humidified chamber at 37°C under saturated air with a 5% CO2 atmosphere. Stock solutions of 10 mM drug compounds were prepared in DMSO and were sequentially diluted with the cell culture buffer to give a final DMSO concentration of 0.5%. The solutions were added to the 96-well plates in 100 μL aliquots and 100 μL of buffer was added as a control to give a final drug compound concentration range of 0 − 100 μM. The plates were incubated for a further 72 h under the same conditions as before. MTT (10 μL, 5 mg/mL in Dulbecco’s phosphate-buffered saline) was added to each well and the plates were incubated for a further 3 h under the same conditions as before. The culture medium was aspirated from each well and the purple formazan crystals, formed by the mitochondrial dehydrogenase activity of vital cells, were dissolved in 100 μL DMSO. The absorbance of the resulting solutions was measured at 570 and 630 nm using a SpectraMax M5e multimode microplate reader and SoftMax Pro software, version 6.2.2. As the absorbance is directly proportional to the number of surviving cells, the percentage of surviving cells was calculated from the absorbance of wells relative to the control. The reported IC50 values are based on the mean from four independent experiments, each comprising three replicates per concentration.

MDA-MB-231 cells = experiment: MTT cytotoxicity assay, MDA-MB-231; assay type: cell-based, human; conditions: Homo sapiens, MDA-MB-231
Method: as §2

L929 cells = experiment: MTT cytotoxicity assay, L929; assay type: cell-based, mouse; conditions: for selectivity towards the breast cancer cell lines: MCF-7 and MDA-MB-231 versus non-tumorigenic L929, 72 h MTT; for IC50: Mus musculus, L929, MTT, 72 h incubation, read-out: IC50 (average ± standard deviation) L929
Method: as §2, with “Cytotoxicity” for “L929, MCF-7, and MDA-MB-231 cell lines were cultured in DMEM GlutaMAX media containing 10% heat-inactivated FBS and 1% (v/v) penicillin-streptomycin at 37°C and CO2 (5%). Cytotoxicity”, “Stock solutions of 10 mM drug compounds were prepared in DMSO and were sequentially diluted with the cell culture buffer to give a final DMSO concentration of 0.5%. The solutions were added to the 96-well plates in 100 μL aliquots and 100 μL of buffer was added as a control to give a final drug compound concentration range of 0 − 100 μM.” left out

GST P1-1 [3] = biological target: T1, GST P1-1; experiment: Determination of inhibitor binding mechanism (kinetic GST P1-1 activity assay); assay type: biochemical; conditions: from Km and Vmax versus reaction without inhibitor
Method: The GST P1-1 concentration used in the assays was 0.02 U mL^-1.
1 mM GSH final concentration was used. The GST P1-1 was pre-incubated with the GSH for 20 minutes at room temperature before the addition of 12.5 μL of 4 mM solution of CDNB. The reaction rate was recorded against time using UV/VIS spectrophotometer (SpectraMax M5e from Molecular devices) at […].
The drug compounds’ inhibition mechanism was investigated using the kinetic GST P1-1 activity assay. Concentrations of CDNB ranged from 0–40 mM with the drug solution at a constant concentration of 5 μM. Experiments were performed in duplicate.
The Michaelis-Menten constant, Km, and […] Vmax were calculated using GraphPad Prism 9 software. To identify the type of inhibition the Michaelis-Menten equation was applied (Eq. 1): […]
where v0 is the initial velocity of the reaction, Vmax is the maximum velocity achieved by the reaction at maximum concentrations of substrate, [S] is the concentration of substrate, and Km is the substrate concentration at which the reaction velocity is half of the Vmax (Michaelis-Menten constant). The Michaelis-Menten equation predicts a hyperbolic relationship between initial velocity and substrate concentration, describing the kinetic behavior of enzymes. Evaluating the differences in Km and Vmax compared with the reaction without an inhibitor allows the competition type of an inhibitor to be identified. Competitive inhibitors present an increase in the Km and with Vmax unaffected. Non-competitive inhibitors present a […] Vmax.

[4] = Table 2, rounded values, read-out: IC50 GSTP1 enzymatic reaction
[5] = MTT, 72 h incubation, read-out: IC50 (average ± standard deviation) MCF-7
[6] = compound alone, read-out: Concentration IC50 isolated (MCF-7 cell line)
[7] = MTT, 72 h incubation, read-out: IC50 (average ± standard deviation) MDA-MB-231
[8] = compound alone, read-out: Concentration IC50 isolated (MDA-MB-231 cell line)

Row | Compound | Score (GST P1-1 [1]) | IC50 (GST P1-1 [2]; [4]) [µM] | Hill Slope (dose-response curve) (GST P1-1 [2]; reconfirmation assay) | IC50 (GST P1-1 [2]; reconfirmation assay, Table S2, read-out: IC50 GSTP1) [µM] | IC50 (MCF-7 cells; [5]) [µM] | IC50 (MCF-7 cells; [6]) [µM] | IC50 (MDA-MB-231 cells; [7]) [µM] | IC50 (MDA-MB-231 cells; [8]) [µM] | selectivity towards the breast cancer cell lines (L929 cells) | IC50 (L929 cells) [µM] | Inhibition mechanism (GST P1-1 [3])
1 | CCc1ccc(/C=C2/SC(=S)NC2=O)cc1 [10058-F4] | 0.731 | 2.8 | 1.37 | 2.75 | 14 ± 2 | 14 | 15 ± 4 | 15 | highly selective | > 100 | Non-competitive
2 | C[C@H]1COC2=C1C(=O)C(=O)c1c2ccc2c1CCCC2(C)C [Cryptotanshinone 97.0%, Cryptotanshinone] | 1.037 | 8.9 | 0.85 |  | 0.29 ± 0.04 | 0.29 | 2.9 ± 0.3 | 2.9 | reasonable degree of selectivity | 4.4 ± 0.3 | Non-competitive
3 | O=C1C(=Cc2cccnc2)C(=O)c2ccccc21 [PRT 4165] | 0.890 | 1.3 | 1.2 |  | 59 ± 7 | 59 | 27 ± 6 | 27 | reasonable degree of selectivity | > 100 | Non-competitive
4 | CC(C)N(CCC(=O)c1ccc2ccccc2c1)Cc1ccccc1 [ZM 39923 (hydrochloride)] | 0.788 | 1.5 | 1.56 |  | 4.3 ± 0.1 | 4.3 | 2.6 ± 0.1 | 2.6 | reasonable degree of selectivity | 8.2 ± 0.6 | Competitive
